Results as given in US20160113921A1, “COMBINATION THERAPY COMPRISING OXAZOLIDINONE-QUINOLONES FOR USE IN TREATING BACTERIAL INFECTIONS” (MORPHOCHEM AKTIENGESELLSCHAFT FÜR KOMBINATORISCHE CHEMIE, priority 2013, published 2016).
≈ marks a conversion by molar mass, not a printed value. Read-outs that look alike come from different tables or passages of the source.

Legend:
Type in all cases: cell-based
[1] = test system: E. faecium UW 3695 (linezolid and quinolone-resistant); assay: MIC, broth microdilution (CLSI), CAMHB; settings: Enterococcus faecium; monosubstance; Efc UW3695; read-out: MIC
Experimental: (§1) MIC-testing was done immediately after preparation of the dilutions. All tests were done in duplicate and repeated once on a separate occasion.
(§2) 1 mL of the bacterial suspension was transferred into a tube containing 10 mL CAMHB and was vortexed thoroughly. (S. pneumoniae 1 mL in 10 mL CAMHB+5% lysed horse blood). Columns 1-15 of the 96-well plate were inoculated with 5 μL of this suspension (1-15=antibacterial solution, 16=sterile medium without test item).
(§3) Turbidity was read visually with a mirror.

E. faecalis ATCC 29212 = assay: MIC, broth microdilution (CLSI), CAMHB; settings: Enterococcus faecalis; monosubstance; Ef ATCC29212; read-out: MIC
Experimental: as §1, §2, §3

S. pneumoniae ATCC 33400 = assay: MIC, broth microdilution (CLSI), CAMHB; settings: Streptococcus pneumoniae; monosubstance; Spn ATCC33400; read-out: MIC
Experimental: as §1, §2, §3

[2] = test system: S. aureus Visa Mu 50 (MRSA, vancomycin intermediate susceptible); assay: MIC, broth microdilution (CLSI), CAMHB; settings: Staphylococcus aureus; monosubstance; Sa VisaMu50; read-out: MIC
Experimental: as §1, §2, §3

[3] = test system: S. aureus NRS-119 (MRSA, linezolid- and quinolone-resistant); assay: MIC, broth microdilution (CLSI), CAMHB; settings: Staphylococcus aureus
Experimental: as §1, §2, §3

[4] = test system: S. aureus ATCC 33593 (MRSA); assay: MIC, broth microdilution (CLSI), CAMHB; settings: Staphylococcus aureus; monosubstance; Sa ATCC33593; read-out: MIC
Experimental: as §1, §2, §3

S. aureus ATCC 29213 = assay: MIC, broth microdilution (CLSI), CAMHB; settings: Staphylococcus aureus; monosubstance; Sa ATCC29213; read-out: MIC
Experimental: as §1, §2, §3

E. faecalis V583 (VanB) = assay: MIC, broth microdilution (CLSI), CAMHB; settings: Enterococcus faecalis; monosubstance; Ef V583; read-out: MIC
Experimental: as §1, §2, §3

[5] = test system: S. pneumoniae BAY 19397 (penicillin-, macrolide-, quinolone-resistant); assay: MIC, broth microdilution (CLSI), CAMHB; settings: Streptococcus pneumoniae, monosubstance; Spn 19397; read-out: MIC
Experimental: as §1, §2, §3

E. faecium DSMZ 2146 = assay: MIC, broth microdilution (CLSI), CAMHB; settings: Enterococcus faecium
Experimental: as §1, §2, §3

[6] = test system: S. aureus DSM 11823, clone 16 (MSSA, quinolone-resistant); assay: microbe, parasite or virus in culture; settings: Staphylococcus aureus
Experimental: as §1, §2, §3

[7] = test system: E. coli NRZ-00302 (metallo β-lactamase NDM-1); assay: MIC, broth microdilution (CLSI), CAMHB; settings: Escherichia coli
Experimental: as §1, §2, §3

[8] = test system: E. coli NRZ-00401 (metallo β-lactamase VIM-1); assay: MIC, broth microdilution (CLSI), CAMHB; settings: Escherichia coli; monosubstance; Ec NRZ00401; read-out: MIC
Experimental: as §1, §2, §3

[9] = test system: E. coli GNS-2601 (ESBL CTX-M-15); assay: MIC, broth microdilution (CLSI), CAMHB; settings: Escherichia coli
Experimental: as §1, §2, §3

[10] = test system: K. pneumoniae NRZ-00002 (OXA-48); assay: MIC, broth microdilution (CLSI), CAMHB; settings: Klebsiella pneumoniae; monosubstance; Kp NRZ00002; read-out: MIC
Experimental: as §1, §2, §3

K. pneumoniae ATCC 13883 = assay: MIC, broth microdilution (CLSI), CAMHB; settings: Klebsiella pneumoniae; monosubstance; Kp ATCC13883; read-out: MIC
Experimental: as §1, §2, §3

[11] = test system: K. pneumoniae NRZ-00103 (KPC-2); assay: MIC, broth microdilution (CLSI), CAMHB; settings: Klebsiella pneumoniae
Experimental: as §1, §2, §3

P. aeruginosa ATCC 10145 = assay: MIC, broth microdilution (CLSI), CAMHB; settings: Pseudomonas aeruginosa; monosubstance; Pa ATCC10145; read-out: MIC
Experimental: as §1, §2, §3

[12] = test system: P. aeruginosa NRZ-00425 (VIM-1); assay: MIC, broth microdilution (CLSI), CAMHB; settings: Pseudomonas aeruginosa
Experimental: as §1, §2, §3

P. mirabilis ATCC 9240 = assay: MIC, broth microdilution (CLSI), CAMHB; settings: Proteus mirabilis; monosubstance; Pm ATCC9240; read-out: MIC
Experimental: as §1, §2, §3

[13] = test system: P. mirabilis NRZ-00185 (AmpC, type CMY-2); assay: MIC, broth microdilution (CLSI), CAMHB; settings: Proteus mirabilis
Experimental: as §1, §2, §3

E. coli ATCC 25922 = assay: MIC, broth microdilution (CLSI), CAMHB; settings: Escherichia coli; monosubstance; Ec ATCC25922; read-out: MIC
Experimental: as §1, §2, §3

E. cloacae ATCC 13047 = assay: MIC, broth microdilution (CLSI), CAMHB; settings: Enterobacter cloacae; monosubstance; Ecl ATCC13047; read-out: MIC
Experimental: as §1, §2, §3

[14] = test system: K. pneumoniae NRZ-00535 (VIM-1); assay: MIC, broth microdilution (CLSI), CAMHB; settings: Klebsiella pneumoniae
Experimental: as §1, §2, §3

[15] = test system: E. cloacae NRZ-00239 (VIM-1); assay: MIC, broth microdilution (CLSI), CAMHB; settings: Enterobacter cloacae; monosubstance; Ecl NRZ00239; read-out: MIC
Experimental: as §1, §2, §3

[16] = test system: Gram-negative test strains (Enterobacteriaceae, non-fermenters); assay: MIC testing, statements on the Gram-negative strain panel
Excerpt: as §1

SMILES: CC1(C)S[C@@H]2[C@H](NC(=O)[C@H](N)c3ccccc3)C(=O)N2[C@H]1C(=O)O [ampicillin]
- MIC [1]: 32 µg/mL (≈ 91.6 µM)
- MIC (E. faecalis ATCC 29212): 1 µg/mL (≈ 2.86 µM)
- MIC (S. pneumoniae ATCC 33400): 0.0075 µg/mL (≈ 0.0215 µM)
- MIC [2]: 256 µg/mL (≈ 733 µM)
- MIC [3]: 128 µg/mL (≈ 366 µM)
- MIC [4]: 64 µg/mL (≈ 183 µM)
- MIC (S. aureus ATCC 29213): 0.5 µg/mL (≈ 1.43 µM)
- MIC (E. faecalis V583 (VanB)): 0.5 µg/mL (≈ 1.43 µM)
- MIC [5]: 1 µg/mL (≈ 2.86 µM)
- MIC (E. faecium DSMZ 2146; DSMZ2146): 128 µg/mL (≈ 366 µM)
- MIC [6]: 0.007 µg/mL (≈ 0.02 µM)

SMILES: CC(C)(O/N=C(\C(=O)N[C@@H]1C(=O)N2C(C(=O)[O-])=C(C[n+]3ccccc3)CS[C@H]12)c1csc(N)n1)C(=O)O [ceftazidime]
- MIC [7]: > 256 µg/mL
- MIC [8]: 32 µg/mL (≈ 58.5 µM)
- MIC [9]: 128 µg/mL (≈ 234 µM)
- MIC [10]: 64 µg/mL (≈ 117 µM)
- MIC (K. pneumoniae ATCC 13883): 0.25 µg/mL (≈ 0.457 µM)
- MIC [11]: > 256 µg/mL
- MIC (P. aeruginosa ATCC 10145): 2 µg/mL (≈ 3.66 µM)
- MIC ([12]; monosubstance, Pa NRZ00425, read-out: MIC): 32 µg/mL (≈ 58.5 µM)
- MIC (P. mirabilis ATCC 9240): 0.5 µg/mL (≈ 0.915 µM)
- MIC [13]: 128 µg/mL (≈ 234 µM)
- MIC (E. coli ATCC 25922): 0.03 µg/mL (≈ 0.0549 µM)
- MIC (E. cloacae ATCC 13047): 2 µg/mL (≈ 3.66 µM)
- MIC [14]: > 256 µg/mL
- MIC [15]: 4 µg/mL (≈ 7.32 µM)
- MIC ([16]; E. coli, K. pneumoniae, and P. mirabilis wild type strains, read-out: MIC (inhibitory concentration)): < 0.5 µg/mL
- MIC ([16]; remainder / remaining / all other test strains, as worded for each agent, read-out: MIC): > 2 µg/mL

SMILES: CO/N=C(\C(=O)N[C@@H]1C(=O)N2C(C(=O)O)=C(CSc3nc(=O)c(=O)[nH]n3C)CS[C@H]12)c1csc(N)n1 [ceftriaxone]
- MIC [1]: 32 µg/mL (≈ 57.7 µM)
- MIC (E. faecalis ATCC 29212): 0.5 µg/mL (≈ 0.902 µM)
- MIC (S. pneumoniae ATCC 33400): 0.0075 µg/mL (≈ 0.0135 µM)
- MIC [2]: 16 µg/mL (≈ 28.9 µM)
- MIC ([3]; monosubstance, Sa NRS119, read-out: MIC): > 256 µg/mL
- MIC [4]: > 256 µg/mL
- MIC (S. aureus ATCC 29213): 4 µg/mL (≈ 7.21 µM)
- MIC (E. faecalis V583 (VanB)): 0.5 µg/mL (≈ 0.902 µM)
- MIC [5]: 4 µg/mL (≈ 7.21 µM)
- MIC (E. faecium DSMZ 2146; monosubstance, Efc DSMZ2146, read-out: MIC): 0.5 µg/mL (≈ 0.902 µM)
- MIC [6]: 4 µg/mL (≈ 7.21 µM)

SMILES: C[C@@H](O)[C@H]1C(=O)N2C(C(=O)O)=C(SCCN=CN)C[C@H]12 [imipenem]
- MIC ([7]; monosubstance, Ec NRZ00302, read-out: MIC): 4 µg/mL (≈ 13.4 µM)
- MIC [8]: 4 µg/mL (≈ 13.4 µM)
- MIC ([9]; monosubstance, Ec GNS2601, read-out: MIC): 0.03 µg/mL (≈ 0.1 µM)
- MIC [10]: 2 µg/mL (≈ 6.68 µM)
- MIC (K. pneumoniae ATCC 13883): 0.25 µg/mL (≈ 0.835 µM)
- MIC ([11]; monosubstance, Kp NRZ00103, read-out: MIC): 32 µg/mL (≈ 107 µM)
- MIC (P. aeruginosa ATCC 10145): 0.5 µg/mL (≈ 1.67 µM)
- MIC [12]: 128 µg/mL (≈ 428 µM)
- MIC (P. mirabilis ATCC 9240): 1 µg/mL (≈ 3.34 µM)
- MIC ([13]; monosubstance, Pm NRZ00185, read-out: MIC): 1 µg/mL (≈ 3.34 µM)
- MIC (E. coli ATCC 25922): 0.03 µg/mL (≈ 0.1 µM)
- MIC (E. cloacae ATCC 13047): 0.25 µg/mL (≈ 0.835 µM)
- MIC ([14]; monosubstance, Kp NRZ00535, read-out: MIC): 8 µg/mL (≈ 26.7 µM)
- MIC [15]: 0.25 µg/mL (≈ 0.835 µM)
- MIC ([16]; all the test strains except P. aeruginosa NRZ-00185 and K. pneumoniae NRZ-00103, read-out: MIC (inhibitory concentration)): < 8 µg/mL
